Reference: ChEMBL document CHEMBL1240403, “Penicillin-binding protein gene alterations in Streptococcus uberis isolates presenting decreased susceptibility to penicillin” (2010)
Values after ≈ are worked out from the molar mass of the structure shown.

Tests used:
Streptococcus uberis [1] = experiment: Antimicrobial activity against Streptococcus uberis ATCC 19436 harboring PAP1A A227T, PBP2B N366I/T402I and PBP2X E381K/Q554E mutation after 15 passages assessed as inhibition of visible growth by broth macrodilution method; format: functional
Streptococcus uberis [2] = experiment: Antimicrobial activity against Streptococcus uberis ATCC 19436 assessed as inhibition of visible growth after 24 hrs by broth macrodilution method; format: functional; details: ATCC 19436, 24 h
Streptococcus uberis [3] = experiment: Antimicrobial activity against Streptococcus uberis ATCC 9529 harboring PAP1A R273P, PBP2B N366I/T402I and PBP2X E381K/Q554E mutation after 11 passages assessed as inhibition of visible growth by broth macrodilution method; format: functional
Streptococcus uberis [4] = experiment: Antimicrobial activity against Streptococcus uberis isolate ALP 8144 harboring PBP2X E381K/Q554E mutation assessed as inhibition of visible growth after 24 hrs by broth macrodilution method; format: functional; details: isolate ALP 8144, 24 h
Streptococcus uberis [5] = experiment: Antimicrobial activity against Streptococcus uberis ATCC 19436 harboring PAP1A A227T/G386R, PBP2B N366I/T402I and PBP2X E381K/D524A/Q554E mutation after 30 passages assessed as inhibition of visible growth by broth macrodilution method; format: functional
Streptococcus uberis [6] = experiment: Antimicrobial activity against Streptococcus uberis ATCC 9529 harboring PAP1A R273P, PBP2B N366I/T402I and PBP2X E381K/Q554E mutation after 28 passages assessed as inhibition of visible growth by broth macrodilution method; format: functional
Streptococcus uberis [7] = experiment: Antimicrobial activity against Streptococcus uberis isolate BL246 harboring PBP2B N366I/T402I and PBP2X E381K/Q554E mutation assessed as inhibition of visible growth after 24 hrs by broth macrodilution method; format: functional; details: isolate BL246, 24 h
Streptococcus uberis [8] = experiment: Antimicrobial activity against Streptococcus uberis isolate 1.11 harboring PAP1A G386R, PBP2B T593A and PBP2X E381K/Q554E mutation assessed as inhibition of visible growth after 24 hrs by broth macrodilution method; details: isolate 1.11, 24 h
Streptococcus uberis [9] = experiment: Antimicrobial activity against Streptococcus uberis ATCC 9529 harboring PAP1A A227T/G386R, PBP2B N366I/T402I and PBP2X E381K/D524A/Q554E mutation after 39 passages assessed as inhibition of visible growth by broth macrodilution method; format: functional
Streptococcus uberis [10] = experiment: Antimicrobial activity against Streptococcus uberis ATCC 9529 harboring PBP2B N366I/T402I and PBP2X E381K/Q554E mutation assessed as inhibition of visible growth by broth macrodilution method; format: functional
Streptococcus uberis [11] = experiment: Antimicrobial activity against Streptococcus uberis isolate 20618 harboring PAP1A G386R and PBP2X E381K/Q554E mutation assessed as inhibition of visible growth after 24 hrs by broth macrodilution method; format: functional; details: isolate 20618, 24 h
Streptococcus uberis [12] = experiment: Antimicrobial activity against Streptococcus uberis isolate ALP8092 harboring PAP1A G386R and PBP2X E381K/Q554E mutation assessed as inhibition of visible growth after 24 hrs by broth macrodilution method; format: functional; details: isolate ALP8092, 24 h
Streptococcus uberis [13] = experiment: Antimicrobial activity against Streptococcus uberis ATCC 19436 harboring PAP1A A227T, PBP2B N366I/T402I and PBP2X E381K/D524A/Q554E mutation after 18 passages assessed as inhibition of visible growth by broth macrodilution method; format: functional
Streptococcus uberis [14] = experiment: Antimicrobial activity against Streptococcus uberis ATCC 8749 harboring PAP1A R273H, PBP2B N366I/T402I and PBP2X E381K/Q554E mutation after 16 passages assessed as inhibition of visible growth by broth macrodilution method; format: functional
Streptococcus uberis [15] = experiment: Antimicrobial activity against Streptococcus uberis isolate 20568 harboring PAP1A G386R, PBP2B N366I/T402I/V570A/P575S and PBP2X E381K/Q554E mutation assessed as inhibition of visible growth after 24 hrs by broth macrodilution method; format: functional; details: isolate 20568, 24 h
Streptococcus uberis [16] = experiment: Antimicrobial activity against Streptococcus uberis ATCC 8749 harboring PAP1A A227T/G386R, PBP2B N366I/T402I and PBP2X E381K/D524A/Q554E mutation after 28 passages assessed as inhibition of visible growth broth macrodilution method; format: functional
Streptococcus uberis [17] = experiment: Antimicrobial activity against Streptococcus uberis isolate 20592 harboring and PBP2X E381K/Q554E mutation assessed as inhibition of visible growth after 24 hrs by broth macrodilution method; format: functional; details: isolate 20592, 24 h
Streptococcus uberis [18] = experiment: Antimicrobial activity against Streptococcus uberis ATCC 8749 harboring PBP2B N366I/T402I/V570A/P575S and PBP2X A492E mutation assessed as inhibition of visible growth by broth macrodilution method; format: functional
Streptococcus uberis [19] = experiment: Antimicrobial activity against Streptococcus uberis ATCC 8749 harboring PAP1A A227T/G386R, PBP2B N366I/T402I and PBP2X E381K/D524A/Q554E mutation after 37 passages assessed as inhibition of visible growth broth macrodilution method; format: functional

For `CC1(C)S[C@@H]2[C@H](NC(=O)Cc3ccccc3)C(=O)N2[C@H]1C(=O)O` [PENICILLIN G], the MIC (Streptococcus uberis [1]) was 0.5 µg/mL (≈ 1.5 µM), the MIC (Streptococcus uberis [2]) was 0.032 µg/mL (≈ 0.0957 µM) and the MIC (Streptococcus uberis [3]) was 0.5 µg/mL (≈ 1.5 µM). The MIC (Streptococcus uberis [4]) was 0.25 µg/mL (≈ 0.748 µM), the MIC (Streptococcus uberis [5]) was 2 µg/mL (≈ 5.98 µM) and the MIC (Streptococcus uberis [6]) was 1 µg/mL (≈ 2.99 µM). For the same compound, the MIC (Streptococcus uberis [7]) was 0.25 µg/mL (≈ 0.748 µM), the MIC (Streptococcus uberis [8]) was 0.25 µg/mL (≈ 0.748 µM) and the MIC (Streptococcus uberis [9]) was 2 µg/mL (≈ 5.98 µM). For the same compound, the MIC (Streptococcus uberis [10]) was 0.128 µg/mL (≈ 0.383 µM), the MIC (Streptococcus uberis [11]) was 0.25 µg/mL (≈ 0.748 µM) and the MIC (Streptococcus uberis [12]) was 0.25 µg/mL (≈ 0.748 µM). For the same compound, the MIC (Streptococcus uberis [13]) was 1 µg/mL (≈ 2.99 µM), the MIC (Streptococcus uberis [14]) was 0.5 µg/mL (≈ 1.5 µM) and the MIC (Streptococcus uberis [15]) was 0.5 µg/mL (≈ 1.5 µM). The MIC (Streptococcus uberis [16]) was 1 µg/mL (≈ 2.99 µM), the MIC (Streptococcus uberis [17]) was 0.5 µg/mL (≈ 1.5 µM) and the MIC (Streptococcus uberis [18]) was 0.016 µg/mL (≈ 0.0478 µM). For the same compound, the MIC (Streptococcus uberis [19]) was 2 µg/mL (≈ 5.98 µM).
